# The supplement of paper PMC12463676, “Small-molecule dissolution of stress granules by redox modulation benefits ALS models” (Nature Chemical Biology, 2025)
# Tests used:
# lipoamide = compound: NC(=O)CCCCC1CCSS1 [lipoamide]; assay: thermal stability z-score vs DMSO; higher = more thermally stabilized by treatment; details: HeLa, lipoamide concentration 100 µM
# Procedure: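 Cellular thermal proteome profiling in HeLa cells. Cells were treated with 100 µM lipoamide for 1 h, with or without 1 mM arsenate for a further 1 h, then heated to ten temperatures (37-66.3 °C), and soluble protein was quantified by TMT mass spectrometry relative to 0.1% DMSO controls. The thermal stability score (sum of log2 fold changes minus the abundance score) was transformed to a z-score; mean of n = 3 experiments.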
# potassium arsenate = compound: O=[As]([O-])(O)O.[K+] [potassium arsenate]; assay: as above; details: HeLa; arsenate concentration 1 mM
# Procedure: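 Cellular thermal proteome profiling in HeLa cells treated with 1 mM arsenate for 1 h (DMSO pretreatment), heated to ten temperatures (37-66.3 °C). Soluble protein was quantified by TMT mass spectrometry relative to DMSO controls; the thermal stability score was transformed to a z-score; mean of n = 3 experiments.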
# [1] = arsenate co-treatment: 1 mM arsenate 1 h
# 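Also: each temperature applied for 3 min, abundance score taken as mean log2 fold change at the two lowest temperatures, z-score obtained by mean subtraction and division by SD.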
# UniProt Q9HBR0, sequence (Q9HBR0 whole entry): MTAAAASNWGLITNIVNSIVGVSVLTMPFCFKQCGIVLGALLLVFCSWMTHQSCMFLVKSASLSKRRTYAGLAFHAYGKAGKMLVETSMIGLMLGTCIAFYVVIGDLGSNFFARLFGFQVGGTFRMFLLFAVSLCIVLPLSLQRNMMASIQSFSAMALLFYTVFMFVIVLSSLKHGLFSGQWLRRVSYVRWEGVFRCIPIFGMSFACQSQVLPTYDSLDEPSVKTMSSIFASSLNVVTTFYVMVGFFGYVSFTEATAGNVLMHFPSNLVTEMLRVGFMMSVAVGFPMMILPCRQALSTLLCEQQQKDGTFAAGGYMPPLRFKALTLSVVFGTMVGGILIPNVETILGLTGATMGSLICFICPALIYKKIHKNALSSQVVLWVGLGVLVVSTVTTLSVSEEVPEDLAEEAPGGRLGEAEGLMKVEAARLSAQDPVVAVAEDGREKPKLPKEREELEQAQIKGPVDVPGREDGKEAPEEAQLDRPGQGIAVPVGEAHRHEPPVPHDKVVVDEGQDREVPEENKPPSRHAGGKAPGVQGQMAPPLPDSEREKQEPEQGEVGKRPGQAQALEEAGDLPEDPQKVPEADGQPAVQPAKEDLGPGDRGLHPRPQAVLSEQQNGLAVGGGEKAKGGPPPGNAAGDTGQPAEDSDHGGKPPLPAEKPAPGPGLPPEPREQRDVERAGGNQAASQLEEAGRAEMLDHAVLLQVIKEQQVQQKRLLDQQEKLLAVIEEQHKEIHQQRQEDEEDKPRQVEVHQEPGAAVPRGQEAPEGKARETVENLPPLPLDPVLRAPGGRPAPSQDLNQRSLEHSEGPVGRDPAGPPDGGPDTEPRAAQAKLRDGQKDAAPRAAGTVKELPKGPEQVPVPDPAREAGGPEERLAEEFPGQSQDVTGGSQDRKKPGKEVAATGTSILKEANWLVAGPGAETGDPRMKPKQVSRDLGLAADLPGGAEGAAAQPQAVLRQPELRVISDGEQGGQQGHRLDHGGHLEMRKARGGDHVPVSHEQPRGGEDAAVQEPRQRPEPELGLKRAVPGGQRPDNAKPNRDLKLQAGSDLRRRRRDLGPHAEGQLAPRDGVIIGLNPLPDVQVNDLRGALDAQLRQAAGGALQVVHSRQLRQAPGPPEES
# UniProt Q9H2D1, sequence (Q9H2D1 whole entry): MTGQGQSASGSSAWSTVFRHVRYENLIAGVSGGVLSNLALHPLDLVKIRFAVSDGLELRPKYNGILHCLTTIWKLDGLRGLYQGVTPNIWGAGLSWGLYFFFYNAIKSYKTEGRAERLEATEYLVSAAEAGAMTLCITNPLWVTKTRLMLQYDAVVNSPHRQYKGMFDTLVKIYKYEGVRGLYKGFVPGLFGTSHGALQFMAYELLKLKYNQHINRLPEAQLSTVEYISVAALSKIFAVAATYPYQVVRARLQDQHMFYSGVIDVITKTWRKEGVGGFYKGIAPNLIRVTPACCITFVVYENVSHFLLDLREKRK
# UniProt Q13433, sequence (Q13433 whole entry): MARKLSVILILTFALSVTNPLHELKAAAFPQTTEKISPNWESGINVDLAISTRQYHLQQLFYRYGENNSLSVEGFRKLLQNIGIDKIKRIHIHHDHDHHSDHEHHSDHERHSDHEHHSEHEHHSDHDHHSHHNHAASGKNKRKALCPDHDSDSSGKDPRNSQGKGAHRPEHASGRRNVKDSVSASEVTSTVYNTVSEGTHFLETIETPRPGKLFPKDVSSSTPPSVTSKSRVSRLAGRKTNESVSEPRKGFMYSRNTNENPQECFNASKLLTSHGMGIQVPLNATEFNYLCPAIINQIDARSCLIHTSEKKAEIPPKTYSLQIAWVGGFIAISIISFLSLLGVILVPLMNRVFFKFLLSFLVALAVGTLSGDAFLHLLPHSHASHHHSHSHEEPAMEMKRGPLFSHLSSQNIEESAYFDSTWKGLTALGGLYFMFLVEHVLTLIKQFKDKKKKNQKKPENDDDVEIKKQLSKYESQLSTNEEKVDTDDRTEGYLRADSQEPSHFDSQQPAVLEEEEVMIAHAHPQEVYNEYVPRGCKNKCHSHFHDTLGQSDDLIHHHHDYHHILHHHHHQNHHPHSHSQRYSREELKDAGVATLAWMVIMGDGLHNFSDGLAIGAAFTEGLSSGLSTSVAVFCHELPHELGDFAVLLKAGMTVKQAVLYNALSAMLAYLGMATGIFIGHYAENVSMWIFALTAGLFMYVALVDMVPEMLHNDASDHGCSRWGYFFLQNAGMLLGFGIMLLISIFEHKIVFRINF
# UniProt O14975, sequence (O14975 whole entry, looked up): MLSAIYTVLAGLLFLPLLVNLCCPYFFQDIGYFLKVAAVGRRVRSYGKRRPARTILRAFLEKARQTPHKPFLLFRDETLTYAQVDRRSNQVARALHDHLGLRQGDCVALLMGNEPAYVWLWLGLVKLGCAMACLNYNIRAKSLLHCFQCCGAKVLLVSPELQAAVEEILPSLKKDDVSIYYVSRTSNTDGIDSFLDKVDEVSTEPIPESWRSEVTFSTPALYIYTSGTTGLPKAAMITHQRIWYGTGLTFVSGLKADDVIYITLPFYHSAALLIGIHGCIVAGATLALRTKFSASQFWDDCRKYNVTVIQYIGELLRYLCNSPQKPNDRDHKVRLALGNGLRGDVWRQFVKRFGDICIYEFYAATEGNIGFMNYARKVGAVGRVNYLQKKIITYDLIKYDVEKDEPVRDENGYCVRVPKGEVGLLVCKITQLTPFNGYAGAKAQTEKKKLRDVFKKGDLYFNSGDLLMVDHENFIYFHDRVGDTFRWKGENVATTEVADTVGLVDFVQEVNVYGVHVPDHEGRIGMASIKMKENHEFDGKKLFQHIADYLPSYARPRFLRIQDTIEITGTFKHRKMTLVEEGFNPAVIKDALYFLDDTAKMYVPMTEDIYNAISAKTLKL
# UniProt Q96K37, sequence (Q96K37 whole entry): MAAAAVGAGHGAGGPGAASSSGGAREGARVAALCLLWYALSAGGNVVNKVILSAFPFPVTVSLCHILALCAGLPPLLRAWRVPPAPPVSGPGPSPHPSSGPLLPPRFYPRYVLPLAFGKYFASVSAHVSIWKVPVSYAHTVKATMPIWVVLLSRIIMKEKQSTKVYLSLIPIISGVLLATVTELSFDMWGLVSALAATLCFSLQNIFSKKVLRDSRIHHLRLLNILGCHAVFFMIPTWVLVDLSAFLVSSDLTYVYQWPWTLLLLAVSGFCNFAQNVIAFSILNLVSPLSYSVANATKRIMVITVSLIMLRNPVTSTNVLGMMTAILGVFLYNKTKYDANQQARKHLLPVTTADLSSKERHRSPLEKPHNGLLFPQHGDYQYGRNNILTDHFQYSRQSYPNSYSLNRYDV
# UniProt Q96AG3, sequence (Q96AG3 whole entry): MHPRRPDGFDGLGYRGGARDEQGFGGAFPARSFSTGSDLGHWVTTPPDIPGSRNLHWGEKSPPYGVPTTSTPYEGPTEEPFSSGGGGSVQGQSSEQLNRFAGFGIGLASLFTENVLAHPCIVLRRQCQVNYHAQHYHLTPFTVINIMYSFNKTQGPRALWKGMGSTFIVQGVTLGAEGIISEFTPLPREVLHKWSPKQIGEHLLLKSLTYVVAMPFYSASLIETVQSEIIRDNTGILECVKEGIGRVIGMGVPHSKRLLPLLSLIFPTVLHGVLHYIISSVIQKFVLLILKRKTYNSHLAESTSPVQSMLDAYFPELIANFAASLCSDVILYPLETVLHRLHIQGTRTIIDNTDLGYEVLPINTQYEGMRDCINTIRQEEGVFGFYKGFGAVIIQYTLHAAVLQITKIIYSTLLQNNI
# UniProt Q8N370, sequence (Q8N370 whole entry, looked up): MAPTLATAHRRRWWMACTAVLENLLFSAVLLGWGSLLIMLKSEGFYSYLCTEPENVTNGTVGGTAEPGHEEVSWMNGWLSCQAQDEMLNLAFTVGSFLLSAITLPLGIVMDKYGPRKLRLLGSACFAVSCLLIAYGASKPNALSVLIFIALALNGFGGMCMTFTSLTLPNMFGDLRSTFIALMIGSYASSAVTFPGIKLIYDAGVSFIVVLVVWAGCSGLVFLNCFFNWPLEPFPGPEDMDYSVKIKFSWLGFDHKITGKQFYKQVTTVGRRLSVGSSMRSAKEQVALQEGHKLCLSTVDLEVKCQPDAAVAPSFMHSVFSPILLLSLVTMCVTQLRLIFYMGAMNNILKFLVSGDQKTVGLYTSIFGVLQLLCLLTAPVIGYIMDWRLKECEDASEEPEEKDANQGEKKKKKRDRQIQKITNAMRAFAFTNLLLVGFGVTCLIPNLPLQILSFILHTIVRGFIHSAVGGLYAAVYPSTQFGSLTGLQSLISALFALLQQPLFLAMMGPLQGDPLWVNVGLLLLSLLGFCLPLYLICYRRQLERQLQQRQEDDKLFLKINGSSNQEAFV
# UniProt Q9NVC3, sequence (Q9NVC3 whole entry): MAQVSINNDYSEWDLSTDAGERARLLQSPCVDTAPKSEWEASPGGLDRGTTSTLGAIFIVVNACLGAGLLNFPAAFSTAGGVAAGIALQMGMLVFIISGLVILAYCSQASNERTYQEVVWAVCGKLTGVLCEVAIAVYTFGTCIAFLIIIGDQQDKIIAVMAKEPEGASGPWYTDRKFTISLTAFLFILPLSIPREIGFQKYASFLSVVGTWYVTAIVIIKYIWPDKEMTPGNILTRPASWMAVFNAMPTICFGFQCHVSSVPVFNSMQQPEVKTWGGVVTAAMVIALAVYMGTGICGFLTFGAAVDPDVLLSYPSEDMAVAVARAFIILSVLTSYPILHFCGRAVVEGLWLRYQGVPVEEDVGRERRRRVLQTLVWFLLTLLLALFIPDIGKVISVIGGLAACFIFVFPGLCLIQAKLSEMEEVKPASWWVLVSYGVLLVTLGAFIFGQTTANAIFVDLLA
# UniProt Q3KQZ1, sequence (Q3KQZ1 whole entry): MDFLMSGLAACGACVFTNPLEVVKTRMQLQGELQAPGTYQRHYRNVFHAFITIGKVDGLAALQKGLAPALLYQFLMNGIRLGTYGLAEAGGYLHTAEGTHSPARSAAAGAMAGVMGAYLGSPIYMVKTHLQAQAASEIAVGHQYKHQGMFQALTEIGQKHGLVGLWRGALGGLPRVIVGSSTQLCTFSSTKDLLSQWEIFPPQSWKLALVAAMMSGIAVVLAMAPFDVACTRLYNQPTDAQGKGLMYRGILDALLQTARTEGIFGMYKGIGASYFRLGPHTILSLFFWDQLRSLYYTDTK
Target,thermal stability z-score (lipoamide; [1]),thermal stability z-score (lipoamide; arsenate co-treatment: none),thermal stability z-score (potassium arsenate)
SLC25A28 (UniProt Q96A46),0.65,0.529,1.81
SLC25A29 (UniProt Q8N8R3),0.136,-0.0401,-0.111
SLC25A32 (UniProt Q9H2D1),-0.958,-1.17,-0.601
SLC25A35 (UniProt Q3KQZ1),0.135,-0.276,0.172
SLC25A36 (UniProt Q96CQ1),0.659,0.329,-0.241
SLC25A46 (UniProt Q96AG3),-0.105,0.322,0.109
SLC26A6 (UniProt Q9BXS9),0.538,1.4,0.375
SLC27A2 (UniProt O14975),-0.257,-0.484,0.45
SLC27A4 (UniProt Q6P1M0),-0.824,-0.358,-0.197
SLC29A1 (UniProt Q99808),0.272,0.818,0.277
SLC30A1 (UniProt Q9Y6M5),0.17,0.0172,-0.906
SLC30A5 (UniProt Q8TAD4),-0.202,-0.453,-0.849
SLC30A7 (UniProt Q8NEW0),-1.48,-1.78,0.418
SLC30A9 (UniProt Q6PML9),1.14,1.13,1.17
SLC31A1 (UniProt O15431),0.126,0.215,0.321
SLC33A1 (UniProt O00400),0.69,1.25,0.345
SLC35B2 (UniProt Q8TB61),-0.113,-0.134,0.579
SLC35D1 (UniProt Q9NTN3),-2.29,-2.36,-1.34

Target,thermal stability z-score (lipoamide; [1]),thermal stability z-score (lipoamide; arsenate co-treatment: none),thermal stability z-score (potassium arsenate)
SLC35E1 (UniProt Q96K37),-2.03,-1.92,-1.27
SLC35F6 (UniProt Q8N357),-0.707,-0.328,-0.279
SLC37A4 (UniProt O43826),1.26,-0.205,-0.212
SLC38A1 (UniProt Q9H2H9),0.457,0.549,1.25
SLC38A2 (UniProt Q96QD8),0.351,0.272,0.774
SLC38A5 (UniProt Q8WUX1),0.333,-0.181,-0.311
SLC38A7 (UniProt Q9NVC3),-0.543,-0.964,-0.442
SLC38A10 (UniProt Q9HBR0),0.639,0.226,-0.0408
SLC39A6 (UniProt Q13433),-0.119,0.454,0.868
SLC39A7 (UniProt Q92504),-1.65,-0.943,-0.00591
SLC39A10 (UniProt Q9ULF5),0.0305,-0.329,0.177
SLC39A11 (UniProt Q8N1S5),0.867,0.694,0.429
SLC39A14 (UniProt Q15043),-0.0157,-0.137,-0.236
SLC43A2 (UniProt Q8N370),0.846,1.05,-1.03
SLC43A3 (UniProt Q8NBI5),0.34,0.53,0.807
SLC44A1 (UniProt Q8WWI5),0.347,-0.0965,-0.452
SLC44A2 (UniProt Q8IWA5),-0.0733,-0.171,-0.517
